Values after ≈ are worked out from the molar mass of the structure shown. Like-named read-outs stand apart in the source and are kept apart here.
What was measured:
Assay type in all cases: cell-based
[1] = system: Gram -; assay: MIC test, average over the 15 gram-negative test germs; conditions: 24 h
Experimental: (§1) As to the antibacterial activity, there was determined the Least (Minimum) Inhibiting Concentration (MIC), by working according to the following operative conditions.
(§2) There were used suspensions of test germs (5 gram-positive and 15 gram-negative) having a known titre, kept freezed at -80°C and diluted, at the time of use, in peptonized water up to a concentration of 1-2.10⁷ cfu/ml.
(§3) A few mg of the products, according to the invention were weighed sufficient for preparing parent solutions in DMSO + NaOH (1N) containing 2560 µg/ml (64µg/ml/dish). From the thus prepared parent solutions there were prepared 12 serial dilutions (1:2) down to the concentration of 1.25 µg/ml.
(§4) 0.5 ml of the different dilutions of each product were distributed on dishes containing 19.5 ml of agarized medium (TSA), maintained in a fluid state at the temperature of 50°C. After slight stirring, the dishes were made to solidify and dry under hood (laminar flow).
(§5) The MIC tests (Least or "Minimum" Inhibiting Concentration) were performed by using a Steers multiwell inoculator having 36 wells, each containing 200 µl of bacterial suspension.
(§6) After inoculation, the dishes were placed into a thermostat and checked after 24 h of incubation at 35°C.
(§7) The MIC is defined as the lowermost product concentration (µg/ml) inhibiting the visible growth of the microorganisms.

[2] = system: Gram +; assay: MIC test, average over the 5 gram-positive test germs; conditions: 24 h
Experimental: as §1, §2, §3, §4, §5, §6, §7

[3] = system: Escherichia coli CNUR 1; assay: MIC test, agar dilution with Steers multiwell inoculator; conditions: CNUR1, TSA dishes, 24 h at 35°C, read-out: Minimum Inhibiting Concentration
Experimental: as §1, §2, §3, §4, §5, §6, §7

[4] = system: Staphylococcus aureus MPR 5; assay: as above; conditions: MPR5, TSA dishes, 24 h at 35°C, read-out: Minimum Inhibiting Concentration
Experimental: as §1, §2, §3, §4, §5, §6, §7

[5] = system: Enterobacter cloacae OMNF 1174; assay: as above; conditions: OMNF1174, TSA dishes, 24 h at 35°C, read-out: Minimum Inhibiting Concentration
Experimental: as §1, §2, §3, §4, §5, §6, §7

[6] = system: Staphylococcus aureus ATCC 6538; assay: as above; conditions: ATCC6538, TSA dishes, 24 h at 35°C, read-out: Minimum Inhibiting Concentration
Experimental: as §1, §2, §3, §4, §5, §6, §7

[7] = system: Escherichia coli ISF 432; assay: as above; conditions: ISF432, TSA dishes, 24 h at 35°C, read-out: Minimum Inhibiting Concentration
Experimental: as §1, §2, §3, §4, §5, §6, §7

[8] = system: Proteus vulgaris CNUR 6; assay: as above; conditions: CNUR6, TSA dishes, 24 h at 35°C, read-out: Minimum Inhibiting Concentration
Experimental: as §1, §2, §3, §4, §5, §6, §7

[9] = system: Acinebacter calcoloaceticus OSMPV 1130; assay: as above; conditions: TSA dishes, 24 h at 35°C, read-out: Minimum Inhibiting Concentration
Experimental: as §1, §2, §3, §4, §5, §6, §7

[10] = system: Staphylococcus epidermidis HCF Berset C.; assay: as above; conditions: TSA dishes, 24 h at 35°C, read-out: Minimum Inhibiting Concentration
Experimental: as §1, §2, §3, §4, §5, §6, §7

[11] = system: Klebsiella pneumoniae ATCC 10031; assay: as above; conditions: ATCC10031, TSA dishes, 24 h at 35°C, read-out: Minimum Inhibiting Concentration
Experimental: as §1, §2, §3, §4, §5, §6, §7

[12] = system: Shighella enteritidis; assay: as above; conditions: TSA dishes, 24 h at 35°C, read-out: Minimum Inhibiting Concentration
Experimental: as §1, §2, §3, §4, §5, §6, §7

[13] = system: Enterobacter cloacae OMNF 1153; assay: as above; conditions: OMNF1153, TSA dishes, 24 h at 35°C, read-out: Minimum Inhibiting Concentration
Experimental: as §1, §2, §3, §4, §5, §6, §7

[14] = system: Streptococcus facealis LEP Br.; assay: as above; conditions: TSA dishes, 24 h at 35°C, read-out: Minimum Inhibiting Concentration
Experimental: as §1, §2, §3, §4, §5, §6, §7

[15] = system: Escherichia coli ATCC 8739; assay: as above; conditions: ATCC8739, TSA dishes, 24 h at 35°C, read-out: Minimum Inhibiting Concentration
Experimental: as §1, §2, §3, §4, §5, §6, §7

[16] = system: Pseudomonas aeruginosa ATCC 9027; assay: as above; conditions: ATCC9027, TSA dishes, 24 h at 35°C, read-out: Minimum Inhibiting Concentration
Experimental: as §1, §2, §3, §4, §5, §6, §7

[17] = system: Escherichia coli 120; assay: as above; conditions: TSA dishes, 24 h at 35°C, read-out: Minimum Inhibiting Concentration
Experimental: as §1, §2, §3, §4, §5, §6, §7

[18] = system: Pseudomonas aeruginosa CNUR 2; assay: as above; conditions: CNUR2, TSA dishes, 24 h at 35°C, read-out: Minimum Inhibiting Concentration
Experimental: as §1, §2, §3, §4, §5, §6, §7

[19] = system: Providencia stuardii CNUR 5; assay: as above; conditions: CNUR5, TSA dishes, 24 h at 35°C, read-out: Minimum Inhibiting Concentration
Experimental: as §1, §2, §3, §4, §5, §6, §7

[20] = system: Staphylococcus epidermidis CPHL A2; assay: as above; conditions: CPHLA2, TSA dishes, 24 h at 35°C, read-out: Minimum Inhibiting Concentration
Experimental: as §1, §2, §3, §4, §5, §6, §7

[21] = system: Escherichia coli CNUR 8; assay: as above; conditions: CNUR8, TSA dishes, 24 h at 35°C, read-out: Minimum Inhibiting Concentration
Experimental: as §1, §2, §3, §4, §5, §6, §7

[22] = system: Pseudomonas aeruginosa CNUR 4; assay: as above; conditions: CNUR4, TSA dishes, 24 h at 35°C, read-out: Minimum Inhibiting Concentration
Experimental: as §1, §2, §3, §4, §5, §6, §7

[23] = geometrical average of the MIC over the 15 Gram - strains, read-out: Geometrical Average
[24] = mean log of the MIC over the 15 Gram - strains, read-out: Log (converted)
[25] = geometrical average of the MIC over the 5 Gram + strains, read-out: Geometrical Average

Structure (SMILES)	MIC [1, 23] [µg/mL]	MIC [1, 24] [µg/mL]	MIC [2, 25] [µg/mL]	MIC ([2]; read-out: Log (converted)) [µg/mL]	MIC [3] [µg/mL]	MIC [4] [µg/mL]	MIC [5] [µg/mL]	MIC [6] [µg/mL]	MIC [7] [µg/mL]	MIC [8] [µg/mL]	MIC [9] [µg/mL]	MIC [10] [µg/mL]	MIC [11] [µg/mL]	MIC [12] [µg/mL]	MIC [13] [µg/mL]	MIC [14] [µg/mL]	MIC [15] [µg/mL]	MIC [16] [µg/mL]	MIC [17] [µg/mL]	MIC [18] [µg/mL]	also measured
CC(C)(C)n1cc(C(=O)O)c(=O)c2cc(N)c(N3CCSCC3)cc21 [Compound 46, 6-amino-1-terbutyl-7-(1-thiomorpholinyl)-1,4-dihydro-4-oxo-quinoline carboxylic acid]	1.31 (≈ 3.62 µM)	1.31 (≈ 3.62 µM)	0.66	0.659 (≈ 1.82 µM)	1 (≈ 2.77 µM)	0.25 (≈ 0.692 µM)	2 (≈ 5.53 µM)	0.25 (≈ 0.692 µM)	0.03 (≈ 0.083 µM)	128 (≈ 354 µM)	0.5 (≈ 1.38 µM)	0.5 (≈ 1.38 µM)	0.03 (≈ 0.083 µM)	2 (≈ 5.53 µM)	2 (≈ 5.53 µM)	8 (≈ 22.1 µM)	0.06 (≈ 0.166 µM)	4 (≈ 11.1 µM)	0.25 (≈ 0.692 µM)	16 (≈ 44.3 µM)	MIC [19]: 4 µg/mL (≈ 11.1 µM); MIC [20]: 0.5 µg/mL (≈ 1.38 µM); MIC [21]: 0.25 µg/mL (≈ 0.692 µM); MIC [22]: 128 µg/mL (≈ 354 µM)
CC(C)(C)n1cc(C(=O)O)c(=O)c2cc(N)c(N3CCc4ccccc4C3)cc21 [Compound 47, 6-amino-1-terbutyl-7-[2-(1,2,3,4-tetrahydroisoquinolinyl)]-1,4-dihydro-4-oxo-quinoline carboxylic acid]	4.77 (≈ 12.2 µM)	4.78 (≈ 12.2 µM)	0.871	0.871 (≈ 2.22 µM)	8 (≈ 20.4 µM)	0.5 (≈ 1.28 µM)	8 (≈ 20.4 µM)	0.25 (≈ 0.639 µM)	0.12 (≈ 0.307 µM)	128 (≈ 327 µM)	2 (≈ 5.11 µM)	1 (≈ 2.55 µM)	0.12 (≈ 0.307 µM)	8 (≈ 20.4 µM)	16 (≈ 40.9 µM)	8 (≈ 20.4 µM)	0.12 (≈ 0.307 µM)	32 (≈ 81.7 µM)	2 (≈ 5.11 µM)	64 (≈ 163 µM)	MIC [19]: 4 µg/mL (≈ 10.2 µM); MIC [20]: 0.5 µg/mL (≈ 1.28 µM); MIC [21]: 2 µg/mL (≈ 5.11 µM); MIC [22]: 128 µg/mL (≈ 327 µM)
CC(C)(C)n1cc(C(=O)O)c(=O)c2cc(N)c(N3CCN(c4ccccn4)CC3)cc21 [Compound 48, 6-amino-1-terbutyl-7-[4-(2-pyridyl)-1-piperazinyl]-1,4-dihydro-4-oxo-quinoline carboxylic acid]	19.2 (≈ 45.7 µM)	19.2 (≈ 45.6 µM)	2	2 (≈ 4.74 µM)	64 (≈ 152 µM)	1 (≈ 2.37 µM)	64 (≈ 152 µM)	1 (≈ 2.37 µM)	0.5 (≈ 1.19 µM)	128 (≈ 304 µM)	1 (≈ 2.37 µM)	2 (≈ 4.74 µM)	0.25 (≈ 0.593 µM)	64 (≈ 152 µM)	128 (≈ 304 µM)	16 (≈ 38 µM)	0.5 (≈ 1.19 µM)	128 (≈ 304 µM)	16 (≈ 38 µM)	128 (≈ 304 µM)	MIC [19]: 128 µg/mL (≈ 304 µM); MIC [20]: 1 µg/mL (≈ 2.37 µM); MIC [21]: 16 µg/mL (≈ 38 µM); MIC [22]: 128 µg/mL (≈ 304 µM)
CN1CCN(c2cc3c(cc2N)c(=O)c(C(=O)O)cn3-c2ccc(F)cc2)CC1 [Compound 50]	3.47 (≈ 8.76 µM)	3.48 (≈ 8.77 µM)	10.6	10.5 (≈ 26.6 µM)	4 (≈ 10.1 µM)	4 (≈ 10.1 µM)	4 (≈ 10.1 µM)	8 (≈ 20.2 µM)	0.25 (≈ 0.631 µM)	128 (≈ 323 µM)	16 (≈ 40.4 µM)	8 (≈ 20.2 µM)	0.12 (≈ 0.303 µM)	4 (≈ 10.1 µM)	4 (≈ 10.1 µM)	64 (≈ 161 µM)	0.25 (≈ 0.631 µM)	8 (≈ 20.2 µM)	0.5 (≈ 1.26 µM)	32 (≈ 80.7 µM)	MIC [19]: 4 µg/mL (≈ 10.1 µM); MIC [20]: 8 µg/mL (≈ 20.2 µM); MIC [21]: 0.5 µg/mL (≈ 1.26 µM); MIC [22]: 128 µg/mL (≈ 323 µM)
